Reference: patent US12559506B2, “Indazole based compounds and associated methods of use” (Arvinas Operations, Inc., priority 2021, dated 2026)
Where two headings read alike, the source gives them in different places.

What was measured:
Type in all cases: cell-based
wildtype LRRK2 = biological target: T1, wildtype LRRK2 (Homo sapiens, UniProt Q5S007); assay: LRRK2 degradation assay, HiBit-tagged wildtype LRRK2 expressed from plasmid in HEK293 cells (Nano-Glo Dual-Luciferase); settings: 24 hours; for Dmax: read-out: **WT Dmax (%); for DC50: read-out: *WT DC50
T1 construct: expressed in transfected cells; host or cells: HEK293 (ATCC CRL-1573), transient transfection, mammalian expression vector with ubiquitin promoter
Description: (§1) Exemplary Assay for Testing LRRK2 Degradation Driven by Exemplary Hetero-Bifunctional Compounds Designed to Target LRRK2
(§2) The assay measures the degradation of wildtype and G2019S LRRK2 tagged with a HiBit tag on the C-terminus of the protein that was expressed from a mammalian expression vector, driven by the ubiquitin promoter in HEK293 cells. Each compound dose-response was repeated on two separate days, on three separate plates each day.
(§3) Plasmid Preparation. Transfection mixes were assembled as follows and incubated for 30 minutes at room temperature. In a 15 mL tube, 5.25 mL Opti-MEM (no additions) was mixed with 17 μL Firefly Luciferase plasmid at 1 μg/μL and 158 μL WT plasmid DNA at 1 μg/μL (175 μg total DNA) were mixed by flicking. In a new 15 mL tube, 5.25 mL OptiMEM was mixed with 17 μL Firefly Luciferase plasmid at 1 μg/μL and 158 μL G2019S plasmid DNA at 1 μg/μL (175 μg total DNA) were mixed by flicking. X-tremeGene HP was mixed thoroughly using a vortex. Next, 175 μL was added to each tube and flicked to mix. Both tubes were left to incubate for 30 minutes at room temperature.
(§4) While the transfection mixes were incubating, HEK293 cells (acquired from ATCC; ATCC CRL-1573) were harvested with trypsin. Once cells are detached, the cells were resuspended in 12 mL OptiMEM+5% FBS and transferred to a 50 mL tube. The cells were mixed well and counted. Using OptiMEM+5% FBS, the cells were diluted in two 250 mL conical tubes at 0.71×10^6 cells/mL in 70 mL. One tube was labeled “WT” and the other “G2019S”. The WT and G2019S transfection mixes were added dropwise to the corresponding 250 mL tubes. The tubes were mixed first by pipetting then by swirling. The tubes were incubated at room temperature for at least 5 minutes.
(§5) Each tube was swirled before dispensing and after every three plates. Seventy microliters of cells were dispensed with WT or G2019S DNA to seven plates each. Three plates of each were tested with compound plate one (preparation described below) and three plates of each were tested with compound plate two (preparation described below). The first plate from each set served as a “prime” plate and was not used to test compounds. Each plate was incubated in the hood for 10 minutes before placing in the 37° C. incubator for 24 hours.
(§6) Preparation of Compound and Assay Plates. Two compound plates were made using 96 well polypropylene plates. Compounds were made up at 10 mM and were diluted to 1 mM in 30 μL. Each dose response curve included a well of DMSO, as a negative control and for normalization, and a well of 0.5 μM of Compound 4 as a positive control. In addition to seven test compounds, each plate also included a dose response of Compound 4. The compound plates were spun down along at 1200 rpm for 2 minutes.
(§7) The two compound plates were then mixed and 2 μL was diluted in intermediate plates having 248 μL of Opti-Mem in each well. Next, 10 μL diluted compounds from the intermediate plates were added to each test plate (three WT and three G2019S plates per compound plate for a total of 12 assay plates). The plates were incubated for 24 hours at 37° C.
(§8) All assay plates and all Nano-Glo Dual-Luciferase Reporter Assay System components (except for the DLR substrate) were equilibrated to room temperature. Next, the luciferase buffer was mixed with the lyophilized amber bottle until fully dissolved, and 75 μL of the luciferase mixture was added to each well of each assay plate. The assay plates were incubated for 10 minutes at room temperature with shaking for at least 5 minutes, and then read on a plate reader.
(§9) Developing Plates and Analyzing Data. One milliliter of DLR substrate and 1 mL LgBiT Protein were added to the Stop and Glo buffer, and 75 μL of the mixture was added to each well of each plate. Optically clear seals were added to each plate and each plate was incubated for 20 minutes with shaking for at least 10 minutes, and then read on a plate reader. […]

G2019S LRRK2 = biological target: T2, G2019S LRRK2 (Homo sapiens, UniProt Q5S007, G2019S); assay: LRRK2 degradation assay, HiBit-tagged G2019S LRRK2 expressed from plasmid in HEK293 cells (Nano-Glo Dual-Luciferase); settings: 24 hours
T2 construct: expressed in transfected cells; host or cells: HEK293 (ATCC CRL-1573), transient transfection, mammalian expression vector with ubiquitin promoter
Description: as §1, §2, §3, §4, §5, §6, §7, §8, §9

[1] = biological target: T3, LRRK2 (endogenous, HiBit tagged) (Homo sapiens, UniProt Q5S007); assay: Endogenous LRRK2 degradation assay, endogenous gene C-terminally HiBit-tagged in HEK293 cells (Nano-Glo Dual Luciferase); settings: endogenous HiBit-tagged LRRK2 in HEK293 cells, 24 hours treatment
T3 construct: endogenous in cells; host or cells: HEK293 cells with HiBit knock-in at the endogenous LRRK2 locus, stably expressing firefly luciferase
Method in brief: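 LRRK2-HiBit quantified via Nano-Glo Dual Luciferase in HEK293 knock-in cells co-expressing firefly luciferase, after 24 h exposure to compound (1 μM final top, 1:3, 11 points). Values normalised to DMSO median per plate and curve-fitted; Alamar Blue viability run alongside.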

[2] = HiBit-tagged wildtype LRRK2 in HEK293 cells
[3] = HiBit-tagged G2019S LRRK2 in HEK293 cells
[4] = HiBit-tagged wildtype LRRK2, HEK293 cells
[5] = HiBit-tagged G2019S LRRK2, HEK293 cells

T1 sequence (Q5S007 whole entry): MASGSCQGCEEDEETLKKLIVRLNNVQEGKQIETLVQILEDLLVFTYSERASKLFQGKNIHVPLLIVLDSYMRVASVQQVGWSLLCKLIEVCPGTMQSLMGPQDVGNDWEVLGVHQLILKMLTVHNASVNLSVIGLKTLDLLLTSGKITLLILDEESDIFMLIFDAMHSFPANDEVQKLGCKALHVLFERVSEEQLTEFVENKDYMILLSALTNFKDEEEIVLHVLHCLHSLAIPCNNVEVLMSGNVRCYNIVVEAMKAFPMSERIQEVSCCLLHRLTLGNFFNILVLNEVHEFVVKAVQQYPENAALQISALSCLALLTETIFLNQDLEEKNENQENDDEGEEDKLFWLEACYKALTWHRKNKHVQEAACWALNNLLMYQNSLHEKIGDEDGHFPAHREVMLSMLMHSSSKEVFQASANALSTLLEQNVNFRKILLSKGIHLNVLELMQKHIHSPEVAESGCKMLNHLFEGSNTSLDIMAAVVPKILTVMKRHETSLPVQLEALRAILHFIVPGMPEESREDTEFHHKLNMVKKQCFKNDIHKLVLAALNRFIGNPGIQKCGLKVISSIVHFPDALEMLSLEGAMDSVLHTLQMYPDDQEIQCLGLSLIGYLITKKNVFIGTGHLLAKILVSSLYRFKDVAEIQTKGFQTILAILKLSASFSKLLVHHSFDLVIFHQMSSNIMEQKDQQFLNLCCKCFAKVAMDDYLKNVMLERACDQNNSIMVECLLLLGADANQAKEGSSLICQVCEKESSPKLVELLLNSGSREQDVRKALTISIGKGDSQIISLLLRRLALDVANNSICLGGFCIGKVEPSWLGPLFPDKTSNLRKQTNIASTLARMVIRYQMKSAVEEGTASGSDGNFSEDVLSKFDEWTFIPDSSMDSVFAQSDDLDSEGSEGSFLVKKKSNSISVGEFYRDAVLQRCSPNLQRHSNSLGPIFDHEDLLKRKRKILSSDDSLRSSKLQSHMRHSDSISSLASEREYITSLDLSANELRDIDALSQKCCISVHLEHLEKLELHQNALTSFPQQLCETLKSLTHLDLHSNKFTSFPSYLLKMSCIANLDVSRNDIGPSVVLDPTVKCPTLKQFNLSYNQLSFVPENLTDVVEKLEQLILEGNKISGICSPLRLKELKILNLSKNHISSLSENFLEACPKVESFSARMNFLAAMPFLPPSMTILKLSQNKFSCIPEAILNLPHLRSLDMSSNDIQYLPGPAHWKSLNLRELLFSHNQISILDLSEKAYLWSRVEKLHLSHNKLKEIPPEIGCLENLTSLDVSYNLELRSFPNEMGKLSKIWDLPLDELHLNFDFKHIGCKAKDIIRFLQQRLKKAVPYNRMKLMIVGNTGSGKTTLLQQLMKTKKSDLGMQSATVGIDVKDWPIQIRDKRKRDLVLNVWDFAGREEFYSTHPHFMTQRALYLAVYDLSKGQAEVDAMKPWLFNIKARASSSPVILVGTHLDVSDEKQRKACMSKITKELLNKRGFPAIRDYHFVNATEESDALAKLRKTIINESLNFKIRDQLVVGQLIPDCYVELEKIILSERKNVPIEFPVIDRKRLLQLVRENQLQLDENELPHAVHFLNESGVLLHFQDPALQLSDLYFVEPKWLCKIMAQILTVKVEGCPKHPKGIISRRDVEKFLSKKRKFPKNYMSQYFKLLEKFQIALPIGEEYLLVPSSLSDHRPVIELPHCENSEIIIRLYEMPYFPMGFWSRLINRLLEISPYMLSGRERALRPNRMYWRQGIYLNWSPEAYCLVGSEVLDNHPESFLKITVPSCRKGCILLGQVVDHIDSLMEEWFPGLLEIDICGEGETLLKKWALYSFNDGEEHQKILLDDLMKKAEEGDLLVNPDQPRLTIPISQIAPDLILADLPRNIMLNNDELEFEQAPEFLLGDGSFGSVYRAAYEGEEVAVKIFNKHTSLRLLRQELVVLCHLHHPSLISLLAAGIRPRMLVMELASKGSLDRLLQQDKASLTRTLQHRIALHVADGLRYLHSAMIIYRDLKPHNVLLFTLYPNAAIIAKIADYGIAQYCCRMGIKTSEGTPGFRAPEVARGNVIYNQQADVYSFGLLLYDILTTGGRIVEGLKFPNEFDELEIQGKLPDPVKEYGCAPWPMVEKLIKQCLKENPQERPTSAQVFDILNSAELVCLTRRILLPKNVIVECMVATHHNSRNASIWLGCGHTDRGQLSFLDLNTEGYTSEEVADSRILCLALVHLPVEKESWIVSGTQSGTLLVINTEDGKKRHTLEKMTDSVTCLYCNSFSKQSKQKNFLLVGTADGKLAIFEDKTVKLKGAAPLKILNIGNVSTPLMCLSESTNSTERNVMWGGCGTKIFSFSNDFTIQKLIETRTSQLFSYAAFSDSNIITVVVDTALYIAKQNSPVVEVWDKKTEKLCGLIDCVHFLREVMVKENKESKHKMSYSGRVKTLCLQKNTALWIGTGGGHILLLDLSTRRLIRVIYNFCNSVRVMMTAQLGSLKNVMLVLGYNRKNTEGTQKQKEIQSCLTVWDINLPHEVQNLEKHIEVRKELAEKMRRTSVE
T3 sequence (Q5S007 whole entry): as above
T2 sequence (Q5S007 whole entry G2019S): as the sequence (Q5S007 whole entry) above, with G2019S counted along it

Structure (SMILES) | Dmax (wildtype LRRK2; [2]) [%] | DC50 (wildtype LRRK2; [2]) [nM] | DC50 (G2019S LRRK2; [3]) [nM] | Dmax (G2019S LRRK2; [3]) [%] | also measured
CC1(Oc2ccc3n[nH]c(-c4cc(N5CCC(CN6CCC(CN7CCN(c8ccc9c(c8)C(=O)N(C8CCC(=O)NC8=O)C9=O)CC7)CC6)CC5)ncn4)c3c2)CC1 (stereo not shown) [Compound 67, 2-(2,6-dioxo-3-piperidyl)-5-[4-[[1-[[1-[6-[5-(1-methylcyclopropoxy)-2H-indazol-3-yl]pyrimidin-4-yl]-4-piperidyl]methyl]-4-piperidyl]methyl]piperazin-1-yl]isoindoline-1,3-dione] | ≥ 70 | < 10 | < 10 | ≥ 70 | –
CC1(Oc2ccc3[nH]nc(-c4ccnc(N5CCC(O[C@H]6C[C@H](OC7CCN(c8ccc9c(c8)C(=O)N(C8CCC(=O)NC8=O)C9=O)CC7)C6)CC5)c4)c3c2)CC1 (stereo partly shown) [Compound 127, 2-(2,6-dioxo-3-piperidyl)-5-[4-[3-[[1-[4-[5-(1-methylcyclopropoxy)-1H-indazol-3-yl]-2-pyridyl]-4-piperidyl]oxy]cyclobutoxy]-1-piperidyl]isoindoline-1,3-dione] | < 50 | 10 to 50 | 10 to 50 | < 50 | –
CC1(Oc2ccc3[nH]nc(-c4ccnc(N5CCC(C(=O)N6CCC(CN7CCN(c8ccc9c(c8)C(=O)N(C8CCC(=O)NC8=O)C9=O)CC7)CC6)CC5)c4)c3c2)CC1 (stereo not shown) [Compound 87, 2-(2,6-dioxo-3-piperidyl)-5-[4-[[1-[1-[4-[5-(1-methylcyclopropoxy)-1H-indazol-3-yl]-2-pyridyl]piperidine-4-carbonyl]-4-piperidyl]methyl]piperazin-1-yl]isoindoline-1,3-dione] | < 50 | < 10 | < 10 | < 50 | –
CC1(Oc2ccc3[nH]nc(-c4ccnc(N5CCC56CN(CC5CCN(CC7CCN(c8ccc9c(c8)C(=O)N(C8CCC(=O)NC8=O)C9=O)CC7)CC5)C6)c4)c3c2)CC1 (stereo not shown) [Compound 162, 2-(2,6-dioxo-3-piperidyl)-5-[4-[[4-[[1-[4-[5-(1-methylcyclopropoxy)-1H-indazol-3-yl]-2-pyridyl]-1,6-diazaspiro[3.3]heptan-6-yl]methyl]-1-piperidyl]methyl]-1-piperidyl]isoindoline-1,3-dione] | – | – | – | – | Dmax (wildtype LRRK2; [4]): < 50%; DC50 (wildtype LRRK2; [4]): 50 to 100 nM; DC50 (G2019S LRRK2; [5]): ≥ 100 nM; Dmax (G2019S LRRK2; [5]): < 50%
CC1(Oc2ccc3[nH]nc(-c4ccnc(N5CCC(Cc6ccc(CC7CCN(c8ccc9c(c8)C(=O)N(C8CCC(=O)NC8=O)C9=O)CC7)cc6)CC5)c4)c3c2)CC1 (stereo not shown) [Compound 173, 2-(2,6-dioxo-3-piperidyl)-5-[4-[[4-[[1-[4-[5-(1-methylcyclopropoxy)-1H-indazol-3-yl]-2-pyridyl]-4-piperidyl]methyl]phenyl]methyl]-1-piperidyl]isoindoline-1,3-dione] | – | – | – | – | DC50 (wildtype LRRK2; [4]): ≥ 100 nM; DC50 (G2019S LRRK2; [5]): ≥ 100 nM
CC1(Oc2ccc3n[nH]c(-c4cc(N5CCN(C(=O)C6CCN(CC7CCN(c8ccc9c(c8)C(=O)N(C8CCC(=O)NC8=O)C9=O)CC7)CC6)CC5)ncn4)c3c2)CC1 (stereo not shown) [Compound 84, 2-(2,6-dioxo-3-piperidyl)-5-[4-[[4-[4-[6-[5-(1-methylcyclopropoxy)-2H-indazol-3-yl]pyrimidin-4-yl]piperazine-1-carbonyl]-1-piperidyl]methyl]-1-piperidyl]isoindoline-1,3-dione] | 50 to 70 | < 10 | < 10 | < 50 | –
C[C@H]1CN(c2cc(-c3n[nH]c4ccc(OC5(C)CC5)cc34)ncn2)CCN1C[C@H]1CCN(CC2CCN(c3ccc4c(c3)C(=O)N(C3CCC(=O)NC3=O)C4=O)CC2)C1 (stereo partly drawn) [Compound 111, 2-(2,6-dioxo-3-piperidyl)-5-[4-[[(3S)-3-[[(2S)-2-methyl-4-[6-[5-(1-methylcyclopropoxy)-1H-indazol-3-yl]pyrimidin-4-yl]piperazin-1-yl]methyl]pyrrolidin-1-yl]methyl]-1-piperidyl]isoindoline-1,3-dione] | ≥ 70 | < 10 | – | – | –
CC1(Oc2ccc3[nH]nc(-c4cc(N5CCC(CN6CC[C@H](CN7CCN(c8ccc9c(c8)C(=O)N(C8CCC(=O)NC8=O)C9=O)CC7)C6)CC5)ncn4)c3c2)CC1 (stereo partly drawn) [Compound 114, 2-(2,6-dioxo-3-piperidyl)-5-[4-[[(3S)-1-[[1-[6-[5-(1-methylcyclopropoxy)-1H-indazol-3-yl]pyrimidin-4-yl]-4-piperidyl]methyl]pyrrolidin-3-yl]methyl]piperazin-1-yl]isoindoline-1,3-dione] | 50 to 70 | < 10 | – | – | –
CC1(Oc2ccc3[nH]nc(-c4cc(N5CCC(CN6CCN(CC7CCN(c8cccc9c8C(=O)N(C8CCC(=O)NC8=O)C9=O)CC7)CC6)CC5)ncn4)c3c2)CC1 (stereo not shown) [Compound 146, 2-(2,6-dioxo-3-piperidyl)-4-[4-[[4-[[1-[6-[5-(1-methylcyclopropoxy)-2H-indazol-3-yl]pyrimidin-4-yl]-4-piperidyl]methyl]piperazin-1-yl]methyl]-1-piperidyl]isoindoline-1,3-dione] | 50 to 70 | 10 to 50 | – | – | –
CC1(Oc2ccc3[nH]nc(-c4cc(N5CCC(OCCN6CCC7(CN(c8ccc9c(c8F)CN(C8CCC(=O)NC8=O)C9=O)C7)C(F)(F)C6)CC5)ncn4)c3c2)CC1 (stereo not shown) [Compound 362, 3-[5-(5,5-difluoro-7-{2-[(1-{6-[5-(1-methylcyclopropoxy)-1H-indazol-3-yl]pyrimidin-4-yl}piperidin-4-yl)oxy]ethyl}-2,7-diazaspiro[3.5]nonan-2-yl)-4-fluoro-1-oxo-2,3-dihydro-1H-isoindol-2-yl]piperidine-2,6-dione] | – | – | – | – | DC50 ([1]; read-out: Endogenous WT DC50): < 10 nM; Dmax ([1]; read-out: Endogenous WT Dmax): 50 to 70%
COc1c(N2CCC(CN3CCN(CC4CCN(c5cc(-c6n[nH]c7cc(F)c(OC8(C)CC8)cc67)ncn5)CC4)C(C)(C)C3)CC2)ccc2c1CN(C1CCC(=O)NC1=O)C2=O (stereo not shown) [Compound 278, 3-{5-[4-({4-[(1-{6-[6-fluoro-5-(1-methylcyclopropoxy)-1H-indazol-3-yl]pyrimidin-4-yl}piperidin-4-yl)methyl]-3,3-dimethylpiperazin-1-yl}methyl)piperidin-1-yl]-4-methoxy-1-oxo-2,3-dihydro-1H-isoindol-2-yl}piperidine-2,6-dione] | – | – | – | – | Dmax ([1]; read-out: **Endogenous WT Dmax (%)): 50 to 70%; DC50 ([1]; read-out: *Endogenous WT DC50): < 10 nM
CC1(Oc2cc3c(-c4cc(N5CCC(O[C@H]6C[C@H](OC7CCN(c8ccc9c(c8F)CN(C8CCC(=O)NC8=O)C9=O)CC7)C6)CC5)ncn4)n[nH]c3cn2)CC1 (stereo partly shown) [Compound 218, 3-[4-fluoro-5-[4-[3-[[1-[6-[5-(1-methylcyclopropoxy)-1H-pyrazolo[3,4-c]pyridin-3-yl]pyrimidin-4-yl]-4-piperidyl]oxy]cyclobutoxy]-1-piperidyl]-1-oxo-isoindolin-2-yl]piperidine-2,6-dione] | – | – | – | – | DC50 ([1]; read-out: Endogenous WT DC50): < 10 nM; Dmax ([1]; read-out: Endogenous WT Dmax): 50 to 70%
